Active and inactive are the calls of the source. How the calls were made is not given here.
assay: Inhibition of alpha-galactosidase
Further: test concentration or dose not given here.

| SMILES | Activity |
| --- | --- |
| O=S(=O)(c1ccc2c(c1)OCCO2)N1CCN(c2nc(-c3cccnc3)nc3ccccc23)CC1 | inactive |
| Cc1ccc(S(=O)(=O)N2CCN(c3nc(-n4cnc5ccccc54)nc4ccccc34)CC2)cc1 | inactive |
| O=S(=O)(c1ccccc1Br)N1CCN(c2nc(-c3cccs3)nc3ccccc23)CC1 | inactive |
| CC(=O)c1ccc(S(=O)(=O)N2CCN(c3nc(-c4cccs4)nc4ccccc34)CC2)cc1 | inactive |
| c1csc(-c2nc(N3CCN(Cc4ccc5c(c4)OCCO5)CC3)c3ccccc3n2)c1 | inactive |
| Cc1ccc(S(=O)(=O)N2CCN(c3nc(-c4ccc(CN5CCNCC5)s4)nc4ccccc34)CC2)cc1 | inactive |
| O=S(=O)(/C=C/c1ccccc1)N1CCN(c2nc(-c3ccccc3)nc3ccccc23)CC1 | inactive |
| N#Cc1ccc(S(=O)(=O)N2CCN(c3nc(-c4ccccc4)nc4ccccc34)CC2)cc1 | inactive |
| O=S(=O)(c1ccc(Cl)cc1)N1CCN(c2nc(-c3cccs3)nc3ccccc23)CC1 | inactive |
| O=S(=O)(c1ccc(F)cc1)N1CCN(c2nc(-c3cccs3)nc3ccccc23)CC1 | inactive |
| Cc1ccc(S(=O)(=O)N2CCN(c3nc(-c4ccnnc4)nc4ccccc34)CC2)cc1 | inactive |
| Cc1ccc(S(=O)(=O)N2CCN(c3nc(-c4cccs4)nc4cccnc34)CC2)cc1 | inactive |
| O=S(=O)(c1cccnc1)N1CCN(c2nc(-c3cccs3)nc3ccccc23)CC1 | inactive |
| O=S(=O)(c1ccc(F)cc1)N1CCN(c2nc(C3CC3)nc3ccccc23)CC1 | inactive |
| COc1ccc(N2CCN(c3nc(-c4cccs4)nc4ccccc34)CC2)cc1 | inactive |
| CCOC(=O)c1ccc(S(=O)(=O)N2CCN(c3nc(-c4ccccc4)nc4ccccc34)CC2)cc1 | inactive |
| O=S(=O)(c1ccsc1)N1CCN(c2nc(-c3cccs3)nc3ccccc23)CC1 | inactive |
| CC(C)(C)C(=O)OCCNc1nc(-c2cccs2)nc2ccccc12 | inactive |
| Cc1ccc(S(=O)(=O)N2CCN(c3nc(-c4cnccn4)nc4ccccc34)CC2)cc1 | inactive |
| O=S(=O)(c1ccc(OC(F)(F)F)cc1)N1CCN(c2nc(-c3cccs3)nc3ccccc23)CC1 | inactive |

| SMILES | Activity |
| --- | --- |
| O=S(=O)(c1ccc2c(c1)OCCO2)N1CCN(c2nc(-c3ccccc3)nc3ccccc23)CC1 | inactive |
| O=S(=O)(c1cnc2ccccc2c1)N1CCN(c2nc(-c3cccs3)nc3ccccc23)CC1 | inactive |
| CC(=O)N1CCN(c2nc(-c3cccs3)nc3ccccc23)CC1 | inactive |
| N#Cc1ccc(S(=O)(=O)N2CCN(c3nc(-c4cccs4)nc4ccccc34)CC2)cc1 | inactive |
| O=S(=O)(c1ccc(F)cc1)N1CCN(c2nc(-c3ccccc3)nc3ccccc23)CC1 | inactive |
| COc1cccc(S(=O)(=O)N2CCN(c3nc(-c4cccs4)nc4ccccc34)CC2)c1 | inactive |
| N#Cc1ccccc1S(=O)(=O)N1CCN(c2nc(-c3ccccc3)nc3ccccc23)CC1 | inactive |
| Cc1ccccc1S(=O)(=O)N1CCN(c2nc(-c3cccs3)nc3ccccc23)CC1 | inactive |
| O=S(=O)(c1ccc2c(c1)CCCC2)N1CCN(c2nc(-c3ccccc3)nc3ccccc23)CC1 | inactive |
| Cc1ccc(S(=O)(=O)N2CCN(c3nc(-c4cccnc4)nc4ccccc34)CC2)cc1 | inactive |
| O=S(=O)(c1ccc(Br)cc1)N1CCN(c2nc(-c3cccs3)nc3ccccc23)CC1 | inactive |
| CCOc1ccc(S(=O)(=O)N2CCN(c3nc(-c4ccccc4)nc4ccccc34)CC2)cc1OCC | inactive |
| O=S(=O)(c1ccc(Cl)cc1)N1CCN(c2nc(-c3ccccc3)nc3ccccc23)CC1 | inactive |
| O=[N+]([O-])c1ccc(S(=O)(=O)N2CCN(c3nc(-c4ccccc4)nc4ccccc34)CC2)cc1 | inactive |
| O=S(=O)(c1ccc2c(c1)CCCC2)N1CCN(c2nc(-c3cccs3)nc3ccccc23)CC1 | inactive |
| CC(=O)c1cccc(S(=O)(=O)N2CCN(c3nc(-c4cccs4)nc4ccccc34)CC2)c1 | inactive |
| Fc1ccccc1N1CCN(c2nc(-c3cccs3)nc3ccccc23)CC1 | inactive |
| CC(C)(C)OC(=O)N1CCN(c2nc(-c3cccs3)nc3ccccc23)CC1 | inactive |
| Cc1ccc(S(=O)(=O)N2CCN(c3ccnc(-c4cccs4)n3)CC2)cc1 | inactive |
| O=S(=O)(c1ccc(C(F)(F)F)cc1)N1CCN(c2nc(-c3ccccc3)nc3ccccc23)CC1 | inactive |

| SMILES | Activity |
| --- | --- |
| Cc1ccc(S(=O)(=O)N2CCN(c3cc(-c4cccs4)nc4ccccc34)CC2)cc1 | inactive |
| O=[N+]([O-])c1cccc(S(=O)(=O)N2CCN(c3nc(-c4ccccc4)nc4ccccc34)CC2)c1 | inactive |
| Cc1ccc(S(=O)(=O)N2CCCN(c3nc(-c4cccs4)nc4ccccc34)CC2)cc1 | inactive |
| O=S(=O)(c1ccc2c(c1)OCO2)N1CCN(c2nc(-c3cccs3)nc3ccccc23)CC1 | inactive |
| CC(C)(C)c1cccc(S(=O)(=O)N2CCN(c3nc(-c4cccs4)nc4ccccc34)CC2)c1 | inactive |
| NS(=O)(=O)c1ccc(S(=O)(=O)N2CCN(c3nc(-c4ccccc4)nc4ccccc34)CC2)cc1 | inactive |
| CCOC(=O)c1ccccc1S(=O)(=O)N1CCN(c2nc(-c3cccs3)nc3ccccc23)CC1 | inactive |
| O=S(=O)(Cc1ccccc1)N1CCN(c2nc(-c3cccs3)nc3ccccc23)CC1 | inactive |
| O=C(c1ccccc1)N1CCN(c2nc(-c3cccs3)nc3ccccc23)CC1 | inactive |
| Cc1cccc(S(=O)(=O)N2CCN(c3nc(-c4cccs4)nc4ccccc34)CC2)c1 | inactive |
| CC(=O)c1ccc(S(=O)(=O)N2CCN(c3nc(-c4ccccc4)nc4ccccc34)CC2)cc1 | inactive |
| O=[N+]([O-])c1ccccc1S(=O)(=O)N1CCN(c2nc(-c3cccs3)nc3ccccc23)CC1 | inactive |
| O=[N+]([O-])c1ccccc1S(=O)(=O)N1CCN(c2nc(-c3ccccc3)nc3ccccc23)CC1 | inactive |
| Cc1ccc(S(=O)(=O)N2CCN(c3nc(-c4ccccc4)nc4ccccc34)CC2)cc1 | inactive |
| O=[N+]([O-])c1ccc(S(=O)(=O)N2CCN(c3nc(-c4cccs4)nc4ccccc34)CC2)cc1 | inactive |
| Cc1ccc(S(=O)(=O)C2CCN(c3nc(-c4cccs4)nc4ccccc34)CC2)cc1 | inactive |
| O=S(=O)(c1ccccc1Cl)N1CCN(c2nc(-c3ccccc3)nc3ccccc23)CC1 | inactive |
| O=S(=O)(c1ccccc1)N1CCN(c2nc(-c3cccs3)nc3ccccc23)CC1 | inactive |

assay: Inhibition of alpha-glucosidase

| SMILES | Activity |
| --- | --- |
| O=S(=O)(c1ccc2c(c1)OCCO2)N1CCN(c2nc(-c3cccnc3)nc3ccccc23)CC1 | inactive |
| Cc1ccc(S(=O)(=O)N2CCN(c3nc(-n4cnc5ccccc54)nc4ccccc34)CC2)cc1 | inactive |
| O=S(=O)(c1ccccc1Br)N1CCN(c2nc(-c3cccs3)nc3ccccc23)CC1 | inactive |
| CC(=O)c1ccc(S(=O)(=O)N2CCN(c3nc(-c4cccs4)nc4ccccc34)CC2)cc1 | inactive |
| c1csc(-c2nc(N3CCN(Cc4ccc5c(c4)OCCO5)CC3)c3ccccc3n2)c1 | inactive |
| Cc1ccc(S(=O)(=O)N2CCN(c3nc(-c4ccc(CN5CCNCC5)s4)nc4ccccc34)CC2)cc1 | inactive |
| O=S(=O)(/C=C/c1ccccc1)N1CCN(c2nc(-c3ccccc3)nc3ccccc23)CC1 | inactive |
| N#Cc1ccc(S(=O)(=O)N2CCN(c3nc(-c4ccccc4)nc4ccccc34)CC2)cc1 | inactive |
| O=S(=O)(c1ccc(Cl)cc1)N1CCN(c2nc(-c3cccs3)nc3ccccc23)CC1 | inactive |
| O=S(=O)(c1ccc(F)cc1)N1CCN(c2nc(-c3cccs3)nc3ccccc23)CC1 | inactive |
| Cc1ccc(S(=O)(=O)N2CCN(c3nc(-c4ccnnc4)nc4ccccc34)CC2)cc1 | inactive |
| Cc1ccc(S(=O)(=O)N2CCN(c3nc(-c4cccs4)nc4cccnc34)CC2)cc1 | inactive |
| O=S(=O)(c1cccnc1)N1CCN(c2nc(-c3cccs3)nc3ccccc23)CC1 | inactive |
| O=S(=O)(c1ccc(F)cc1)N1CCN(c2nc(C3CC3)nc3ccccc23)CC1 | inactive |
| COc1ccc(N2CCN(c3nc(-c4cccs4)nc4ccccc34)CC2)cc1 | inactive |
| CCOC(=O)c1ccc(S(=O)(=O)N2CCN(c3nc(-c4ccccc4)nc4ccccc34)CC2)cc1 | inactive |
| O=S(=O)(c1ccsc1)N1CCN(c2nc(-c3cccs3)nc3ccccc23)CC1 | inactive |
| CC(C)(C)C(=O)OCCNc1nc(-c2cccs2)nc2ccccc12 | inactive |
| Cc1ccc(S(=O)(=O)N2CCN(c3nc(-c4cnccn4)nc4ccccc34)CC2)cc1 | inactive |
| O=S(=O)(c1ccc(OC(F)(F)F)cc1)N1CCN(c2nc(-c3cccs3)nc3ccccc23)CC1 | inactive |

| SMILES | Activity |
| --- | --- |
| O=S(=O)(c1ccc2c(c1)OCCO2)N1CCN(c2nc(-c3ccccc3)nc3ccccc23)CC1 | inactive |
| O=S(=O)(c1cnc2ccccc2c1)N1CCN(c2nc(-c3cccs3)nc3ccccc23)CC1 | inactive |
| CC(=O)N1CCN(c2nc(-c3cccs3)nc3ccccc23)CC1 | inactive |
| N#Cc1ccc(S(=O)(=O)N2CCN(c3nc(-c4cccs4)nc4ccccc34)CC2)cc1 | inactive |
| O=S(=O)(c1ccc(F)cc1)N1CCN(c2nc(-c3ccccc3)nc3ccccc23)CC1 | inactive |
| COc1cccc(S(=O)(=O)N2CCN(c3nc(-c4cccs4)nc4ccccc34)CC2)c1 | inactive |
| N#Cc1ccccc1S(=O)(=O)N1CCN(c2nc(-c3ccccc3)nc3ccccc23)CC1 | inactive |
| Cc1ccccc1S(=O)(=O)N1CCN(c2nc(-c3cccs3)nc3ccccc23)CC1 | inactive |
| O=S(=O)(c1ccc2c(c1)CCCC2)N1CCN(c2nc(-c3ccccc3)nc3ccccc23)CC1 | inactive |
| Cc1ccc(S(=O)(=O)N2CCN(c3nc(-c4cccnc4)nc4ccccc34)CC2)cc1 | inactive |
| O=S(=O)(c1ccc(Br)cc1)N1CCN(c2nc(-c3cccs3)nc3ccccc23)CC1 | inactive |
| CCOc1ccc(S(=O)(=O)N2CCN(c3nc(-c4ccccc4)nc4ccccc34)CC2)cc1OCC | inactive |
| O=S(=O)(c1ccc(Cl)cc1)N1CCN(c2nc(-c3ccccc3)nc3ccccc23)CC1 | inactive |
| O=[N+]([O-])c1ccc(S(=O)(=O)N2CCN(c3nc(-c4ccccc4)nc4ccccc34)CC2)cc1 | inactive |
| O=S(=O)(c1ccc2c(c1)CCCC2)N1CCN(c2nc(-c3cccs3)nc3ccccc23)CC1 | inactive |
| CC(=O)c1cccc(S(=O)(=O)N2CCN(c3nc(-c4cccs4)nc4ccccc34)CC2)c1 | inactive |
| Fc1ccccc1N1CCN(c2nc(-c3cccs3)nc3ccccc23)CC1 | inactive |
| CC(C)(C)OC(=O)N1CCN(c2nc(-c3cccs3)nc3ccccc23)CC1 | inactive |
| Cc1ccc(S(=O)(=O)N2CCN(c3ccnc(-c4cccs4)n3)CC2)cc1 | inactive |
| O=S(=O)(c1ccc(C(F)(F)F)cc1)N1CCN(c2nc(-c3ccccc3)nc3ccccc23)CC1 | inactive |

| SMILES | Activity |
| --- | --- |
| Cc1ccc(S(=O)(=O)N2CCN(c3cc(-c4cccs4)nc4ccccc34)CC2)cc1 | inactive |
| O=[N+]([O-])c1cccc(S(=O)(=O)N2CCN(c3nc(-c4ccccc4)nc4ccccc34)CC2)c1 | inactive |
| Cc1ccc(S(=O)(=O)N2CCCN(c3nc(-c4cccs4)nc4ccccc34)CC2)cc1 | inactive |
| O=S(=O)(c1ccc2c(c1)OCO2)N1CCN(c2nc(-c3cccs3)nc3ccccc23)CC1 | inactive |
| CC(C)(C)c1cccc(S(=O)(=O)N2CCN(c3nc(-c4cccs4)nc4ccccc34)CC2)c1 | inactive |
| NS(=O)(=O)c1ccc(S(=O)(=O)N2CCN(c3nc(-c4ccccc4)nc4ccccc34)CC2)cc1 | inactive |
| CCOC(=O)c1ccccc1S(=O)(=O)N1CCN(c2nc(-c3cccs3)nc3ccccc23)CC1 | inactive |
| O=S(=O)(Cc1ccccc1)N1CCN(c2nc(-c3cccs3)nc3ccccc23)CC1 | inactive |
| O=C(c1ccccc1)N1CCN(c2nc(-c3cccs3)nc3ccccc23)CC1 | inactive |
| Cc1cccc(S(=O)(=O)N2CCN(c3nc(-c4cccs4)nc4ccccc34)CC2)c1 | inactive |
| CC(=O)c1ccc(S(=O)(=O)N2CCN(c3nc(-c4ccccc4)nc4ccccc34)CC2)cc1 | inactive |
| O=[N+]([O-])c1ccccc1S(=O)(=O)N1CCN(c2nc(-c3cccs3)nc3ccccc23)CC1 | inactive |
| O=[N+]([O-])c1ccccc1S(=O)(=O)N1CCN(c2nc(-c3ccccc3)nc3ccccc23)CC1 | inactive |
| Cc1ccc(S(=O)(=O)N2CCN(c3nc(-c4ccccc4)nc4ccccc34)CC2)cc1 | inactive |
| O=[N+]([O-])c1ccc(S(=O)(=O)N2CCN(c3nc(-c4cccs4)nc4ccccc34)CC2)cc1 | inactive |
| Cc1ccc(S(=O)(=O)C2CCN(c3nc(-c4cccs4)nc4ccccc34)CC2)cc1 | inactive |
| O=S(=O)(c1ccccc1Cl)N1CCN(c2nc(-c3ccccc3)nc3ccccc23)CC1 | inactive |
| O=S(=O)(c1ccccc1)N1CCN(c2nc(-c3cccs3)nc3ccccc23)CC1 | inactive |
